“Also recorded” adds a separate entry of the source.
Assays:
[1] = test system: macrophage cell line J774; assay: MTT macrophage J774 viability assay; type: cell-based; settings: MTT assay; for IC50: Mus musculus, macrophage J774 viability
Experimental: MTT (3-(4,5-dimethylthiazol-2-yl)-2,5-diphenyl tetrazolium bromide) has an […] colour and is soluble in the medium used for cell culture. The mitochondrial enzyme succinate dehydrogenase acts upon MTT in living cells to produce the insoluble purple coloured formazan. The amount of formazan produced, as measured by UV/visible spectroscopy, is proportional to the number of viable cells.
The medium was carefully removed using a needle without dislodging the crystal layer. 100 μL acidified isopropanol (4 M HCl 1:100 v/v in isopropanol) was added to each well and the purple crystals allowed to dissolve. The absorbance was measured in a plate reader at 540 nm, with 690 nm as reference. The controls were a deep purple colour, indicating a high number of live cells.
Addition of Compounds. […] These stock solutions were then diluted 100× in culture medium.

osteoclasts = assay: Murine co-culture system (osteoblast-bone marrow co-culture on dentine); type: cell-based, mice; settings: for inhibition of osteoclast formation and activity: murine co-culture system
Experimental: The first model system, the murine co-culture system, studies the formation of osteoclasts_from precursors present in the bone marrow. The number of osteoclasts and the amount of dentine resorption was measured.
Osteoclast formation and activity was studied using an adaptation (see, e.g., van't Hof & Ralston, 1997) of the osteoblast-bone marrow co-culture assay originally described by Takahashi et al., 1988.
Co-Culture Methods. Co-culture (see, e.g., Van't Hof et al., 1997) is a method to study the formation of osteoclasts from their precursors. In this assay, osteoblasts were obtained from the calvaria of 2-3 day old neonatal mice. These were plated on dentine, stimulated with 1,25-dihydroxy vitamin D3 to stimulate RANKL and M-CSF expression. Early osteoclast precursors were present in the bone marrow of adult mice. The bone marrow suspension was purified to remove the red blood cells and the remainder cultured on top of the osteoblast layer. The stimulatory factors then allowed the osteoclast precursors to differentiate into mature osteoclasts. At the end of the culture osteoclasts were identified by TRAcP staining and the resorption activity was measured in the same manner as for rabbit osteoclasts.
Preparation of Dentine. The dentine was elephant ivory, preferred to bone because of its uniform surface, which facilitates easy visualisation of resorption pits. It was cut into slices of approximately 200 μm thickness using a Buehler Isomet low speed saw with a diamond wafering blade (series 15 HC). These slices were polished by hand, to a high degree, until one side was shiny. Out of these slices, discs were punched that fit the wells of a 96 well plate, using a paper puncher. Excess residues from the polish were removed by sonication. The discs were then stored in 70% ethanol until required. These discs were then dried and placed shiny side up in the wells of a 96 well plate. Cells were seeded onto the dentine. Following completion of the culture, these dentine slices were carefully removed from the plate and studied under the microscope.
Osteoblast Isolation. Briefly, osteoblasts were isolated from the calvarial bones of 2-day-old mice by sequential collagenase digestion (type I collagenase, Sigma) and cultured in αMEM supplemented with 10% FCS (foetal calf serum) and penicillin and streptomycin at 37° C. in 5% CO2.
More specifically, osteoblasts were obtained from a collagenase digestion of the calvaria (skull bones) of 2-3 day old neo-natal MF1 mice. At this stage in their development these are soft and easily removed. The calvaria from 5-6 mice were carefully dissected and washed in HBSS (Hank's balanced saline solution). The calvaria were placed in a 15 ml tube and shaken at 37° C. in 4 ml collagenase (10 mg/ml) for 10 minutes. This removes the excess unwanted tissue. The liquid was disposed of and a further 4 ml collagenase (10 mg/ml) added to the tube. The calvaria were then digested for a further 30 minutes. After this the supernatant (F1) was removed and retained. The calvaria were washed with a 2×4 ml PBS and this was added to F1. 4 ml EDTA (ethylene diamine tetraacetic acid) (4 mM in PBS) was then added to complex the calcium and allow further extraction of osteoblasts. This was shaken for 10 minutes at 37° C. The supernatant was removed and retained (F2). The calvaria were again washed with 2×4 ml HBSS and this was added to F2. The final 4 ml of collagenase (10 mg/ml) was added to the tube and this was again shaken at 37° C. for 30 minutes. […]

rabbit osteoclasts = assay: Rabbit osteoclast culture system; type: cell-based; settings: for rabbit osteoclast numbers / resorption activity: rabbit osteoclast culture on dentine
Excerpt: The second model system was the rabbit osteoclast system, where mature, functional osteoclasts were isolated from the long bones of rabbits and cultured on dentine slices.
Osteoclast Isolation. Osteoclasts were isolated from the long bones of 2-10 day-old rabbits, as described previously (see, e.g., reference Coxon et al., 2000). All 4 limbs were removed from the rabbits and placed in ice-cold PBS. Soft tissue and cartilage were removed and the bones transferred into fresh PBS. The bones were minced in aMEM (without FCS), using a scalpel. All the medium and fragments were transferred to a 50 ml tube, vortexed for 3×10 seconds and left to stand for 1 minute. The supernatant was removed and made up to 50 ml/rabbit with medium and FCS so as to give a final concentration of 10% FCS.
Osteoclast Plating. The cells were plated onto dentine slices in a 96 well plate, at 100 μL/well (medium: αMEM supplemented with 10% FCS and penicillin and streptomycin) and left for 4 hours to allow adherence to the dentine. After this period the medium was removed, and with it the non-adherent cells. Fresh medium was then added. The remaining population was highly enriched in osteoclasts.
Culturing. At this point, test compounds to be studied were added and the cells cultured at 37° C. in 5% CO2 for 48 hours. At the end of the culture, the osteoclasts were identified by staining for tartrate-resistant acid phosphatase (TRAcP) staining. A good number of osteoclasts in the controls was 100-200.
The resorption pit area was quantified by reflected light microscopy as described previously (see, e.g., van't Hof & Ralston, 1997) and again the results expressed as a % of the control values.

[2] = test system: macrophage cell line J774; assay: Alamar Blue macrophage J774 viability assay; settings: Mus musculus, J774, 72 h, read-out: IC50 (μM) Alamar Blue

| SMILES | IC50 [1] | number of murine osteoclasts (osteoclast precursors) (osteoclasts; compound added at Day 2, removed at Day 4, terminated at Day 10 (FIG. 15)) | resorption pit area (osteoclast precursors) (osteoclasts; compound added at Day 2, removed at Day 4, terminated at Day 10, all concentrations tested (FIG. 16)) | inhibition of osteoclast formation and activity (osteoclasts) | concentrations showing a significant effect (rabbit osteoclasts; osteoclast numbers and resorption activity) | rabbit osteoclast numbers (rabbit osteoclasts) | resorption activity (rabbit osteoclasts) | IC50 [2] | macrophage J774 viability, activity in words ([1]; range of concentrations (FIGS. 4-7)) |
| --- | --- | --- | --- | --- | --- | --- | --- | --- | --- |
| O=C(OCCCCO)c1ccc(-c2ccccc2)cc1 [ABD-0056, 1,4-Butanediol mono(biphenyl-4-carboxylic acid)Ester] | 3.5 µM | even more effective against osteoclast precursor formation than against mature osteoclasts | virtually no resorption | significantly inhibited; also recorded: potent inhibitor | ≥ 10 µM | significantly reduced | significantly reduced | 18 µM | – |
| OCCCCO [1,4-butanediol, reference compound] | – | – | – | no detected effect | – | – | – | – | – |
| O=C(OCCCCCCO)c1ccc(-c2ccccc2)cc1 [ABD-0054, 1,6-Hexanediol mono(biphenyl-4-carboxylic acid)Ester] | 35 µM | – | – | significantly inhibited | – | significantly reduced | significantly reduced | – | next most active |
